From US10770169B2, “Method of providing a treatment to a subject based on a dynamic pathway map” (THE REGENTS OF THE UNIVERSITY OF CALIFORNIA, priority 2010, dated 2020)
Like-named read-outs stand apart in the source and are kept apart here.

Experiments:
[1] = tested on: luminal, basal, claudin-low and ERBB2AMP breast cancer cell lines; assay: Associations of clinically relevant subtypes and response (non-parametric ANOVA or t-test on GI50 ranks); type: cell-based, human; details: Table 6; most sensitive subtype, FDR p<0.20
Method in brief: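 Significance was set at FDR p<0.20 after combining p-values across three test sets. Subtype–response associations came from rank-based non-parametric ANOVA or t-tests on GI50. For three-class comparisons, post-hoc tests of each group against the rest identified the most sensitive group, with FDR correction.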

[2] = tested on: panel of 55 breast cancer cell lines; assay: Cell growth inhibition assay (Cell Titer Glo, 72 h, 9 doses; GI50, TGI, LC50); type: cell-based, human; details: Homo sapiens, read-out: GI50 (converted)

## CO[C@H]1C[C@@H]2CC[C@@H](C)[C@@](O)(O2)C(=O)C(=O)N2CCCC[C@H]2C(=O)O[C@H]([C@H](C)C[C@@H]2CC[C@@H](OC(=O)C(C)(CO)CO)[C@H](OC)C2)CC(=O)[C@H](C)/C=C(\C)[C@@H](O)[C@@H](OC)C(=O)[C@H](C)C[C@H](C)/C=C/C=C/C=C/1C [Temsirolimus]
[1]
  Subtype specificity: Luminal/ERBB2AMP
[2]; 600MPE cell line, censored GI50 values
  GI50: 18200 nM
[2]; AU565, AU565 cell line, censored GI50 values
  GI50: 100 nM
[2]; AU565, cell line AU565
  GI50: 100 nM
[2]; BT-20, BT20 cell line, censored GI50 values
  GI50: 776 nM
[2]; BT-20, cell line BT20
  GI50: 776 nM
[2]; BT-474, BT474 cell line, censored GI50 values
  GI50: 13.5 nM
[2]; BT-474, cell line BT474
  GI50: 13.5 nM
[2]; BT-483, BT483 cell line, censored GI50 values
  GI50: 66100 nM
[2]; BT-483, cell line BT483
  GI50: 66100 nM
[2]; CAMA-1, CAMA1 cell line, censored GI50 values
  GI50: 43.7 nM
[2]; CAMA-1, cell line CAMA1
  GI50: 43.7 nM
[2]; HCC38, HCC38 cell line, censored GI50 values
  GI50: 389 nM
[2]; HCC38, cell line HCC38
  GI50: 389 nM
[2]; HCC70, HCC70 cell line, censored GI50 values
  GI50: 407 nM
[2]; HCC70, cell line HCC70
  GI50: 407 nM
[2]; HCC1143, HCC1143 cell line, censored GI50 values
  GI50: 1580 nM
[2]; HCC1143, cell line HCC1143
  GI50: 1580 nM
[2]; HCC1187, HCC1187 cell line, censored GI50 values
  GI50: 794 nM
[2]; HCC1187, cell line HCC1187
  GI50: 794 nM
[2]; HCC1395, HCC1395 cell line, censored GI50 values
  GI50: 12600 nM
[2]; HCC1395, cell line HCC1395
  GI50: 12600 nM
[2]; HCC1419, HCC1419 cell line, censored GI50 values
  GI50: 52.5 nM
[2]; HCC1419, cell line HCC1419
  GI50: 52.5 nM
[2]; HCC1428, HCC1428 cell line, censored GI50 values
  GI50: 6170 nM
[2]; HCC1428, cell line HCC1428
  GI50: 6170 nM
[2]; HCC1500, HCC1500 cell line, censored GI50 values
  GI50: 24500 nM
[2]; HCC1500, cell line HCC1500
  GI50: 24500 nM
[2]; HCC1806, HCC1806 cell line, censored GI50 values
  GI50: 20400 nM
[2]; HCC1806, cell line HCC1806
  GI50: 20400 nM
[2]; HCC1937, HCC1937 cell line, censored GI50 values
  GI50: 437 nM
[2]; HCC1937, cell line HCC1937
  GI50: 437 nM
[2]; HCC1954, HCC1954 cell line, censored GI50 values
  GI50: 219 nM
[2]; HCC1954, cell line HCC1954
  GI50: 219 nM
[2]; HCC2185 cell line, censored GI50 values
  GI50: 13.2 nM
[2]; HCC3153 cell line, censored GI50 values
  GI50: 20000 nM
[2]; LY2 cell line, censored GI50 values
  GI50: 209 nM
[2]; MCF7, MCF7 cell line, censored GI50 values
  GI50: 1550 nM
[2]; MCF7, cell line MCF7
  GI50: 1550 nM
[2]; MDA-MB-134-VI, MDAMB134VI cell line, censored GI50 values
  GI50: 166 nM
[2]; MDA-MB-175-VII, MDAMB175VII cell line, censored GI50 values
  GI50: 2290 nM
[2]; MDA-MB-361, MDAMB361 cell line, censored GI50 values
  GI50: 251 nM
[2]; MDA-MB-415, MDAMB415 cell line, censored GI50 values
  GI50: 75.9 nM
[2]; MDA-MB-436, MDAMB436 cell line, censored GI50 values
  GI50: 53700 nM
[2]; MDA-MB-453, MDAMB453 cell line, censored GI50 values
  GI50: 100 nM
[2]; MDA-MB-468, MDAMB468 cell line, censored GI50 values
  GI50: 5620 nM
[2]; SK-BR-3, SKBR3 cell line, censored GI50 values
  GI50: 53.7 nM
[2]; SUM52PE, SUM52PE cell line, censored GI50 values
  GI50: 0.417 nM
[2]; SUM149PT, SUM149PT cell line, censored GI50 values
  GI50: 6170 nM
[2]; SUM185PE, SUM185PE cell line, censored GI50 values
  GI50: 1.1 nM
[2]; SUM1315MO2, SUM1315MO2 cell line, censored GI50 values
  GI50: 1120 nM
[2]; SUM-159-PT, SUM159PT cell line, censored GI50 values
  GI50: 229 nM
[2]; T47D, T47D cell line, censored GI50 values
  GI50: 1410 nM
[2]; UACC-812, UACC812 cell line, censored GI50 values
  GI50: 575 nM
[2]; ZR-75-1, ZR751 cell line, censored GI50 values
  GI50: 66100 nM
[2]; ZR-75B, ZR75B cell line, censored GI50 values
  GI50: 107 nM
[2]; cell line 600MPE
  GI50: 18200 nM
[2]; cell line HCC2185
  GI50: 13.2 nM
[2]; cell line HCC3153
  GI50: 20000 nM
[2]; cell line LY2
  GI50: 209 nM
